The source of these data is patent publication US20130029962A1, “Substituted Heteroaromatic Pyrazole-Containing Carboxamide and Urea Compounds as Vanilloid Receptor Ligands” (Gruenenthal GmbH, priority 2011, published 2013).

For the assay, the target named is T1, vanilloid receptor 1 (VR1/TRPV1 receptor) (Homo sapiens, UniProt Q8NER1).
T1 construct: expressed in transfected cells; host or cells: CHO K1
Description: Functional testing on the vanilloid receptor 1 (VR1/TRPV1): FLIPR Ca2+ influx assay, displacement of capsaicin. It counts as cell-based, human being. The following applies: for Ki: capsaicin (Cap) as stimulus, Ki from IC50 by Cheng-Prusoff, read-out: (f) Ki (human being) [nM] Cap. In outline: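 Fluo-4 FLIPR Ca2+ influx in CHO K1 cells transfected with human VR1, measuring displacement of 100 nM capsaicin; rat VR1 agonism/antagonism also assessed in rat dorsal root ganglion neurons cultured 2–3 days at 37° C with 25 ng/mL NGF, then loaded with 2 μM Fluo-4.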

T1 sequence (Q8NER1 whole entry): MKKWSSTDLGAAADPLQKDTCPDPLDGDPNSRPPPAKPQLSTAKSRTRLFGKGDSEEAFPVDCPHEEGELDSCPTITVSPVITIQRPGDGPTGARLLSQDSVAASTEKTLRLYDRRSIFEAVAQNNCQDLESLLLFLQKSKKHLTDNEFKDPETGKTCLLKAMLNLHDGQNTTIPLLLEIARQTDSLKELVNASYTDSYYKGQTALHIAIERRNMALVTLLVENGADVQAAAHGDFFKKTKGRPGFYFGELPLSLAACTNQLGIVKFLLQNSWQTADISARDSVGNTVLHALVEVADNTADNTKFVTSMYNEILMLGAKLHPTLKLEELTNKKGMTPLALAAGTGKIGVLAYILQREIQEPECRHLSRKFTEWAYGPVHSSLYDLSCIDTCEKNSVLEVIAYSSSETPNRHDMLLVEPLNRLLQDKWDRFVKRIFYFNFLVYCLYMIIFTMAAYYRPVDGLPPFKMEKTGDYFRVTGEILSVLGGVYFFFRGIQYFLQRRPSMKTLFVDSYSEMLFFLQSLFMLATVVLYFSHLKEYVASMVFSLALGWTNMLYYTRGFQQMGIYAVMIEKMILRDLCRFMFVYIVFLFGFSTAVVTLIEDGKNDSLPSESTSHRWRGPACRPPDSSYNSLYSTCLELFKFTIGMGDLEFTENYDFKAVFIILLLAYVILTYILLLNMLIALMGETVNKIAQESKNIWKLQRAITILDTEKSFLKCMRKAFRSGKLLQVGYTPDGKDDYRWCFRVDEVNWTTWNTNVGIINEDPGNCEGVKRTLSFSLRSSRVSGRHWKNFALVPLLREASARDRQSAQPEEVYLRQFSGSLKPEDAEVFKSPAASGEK

Take `CC(C(=O)NCc1cc(C(F)(F)F)nn1-c1cccc(Cl)c1)c1cnc(CO)c(F)c1` (stereo not shown) [Example 142, N-((1-(3-chlorophenyl)-3-(trifluoromethyl)-1H-pyrazol-5-yl)methyl)-2-(5-fluoro-6-(hydroxymethyl)pyridin-3-yl)propanamide]: the Ki was found to be 1.5 nM. On the same count and under the same terms, in the case of `Cc1nc(CCO)ccc1NC(=O)NCc1cc(C(F)(F)F)nn1-c1cccc(Cl)c1` [Example 143, 1-((1-(3-chlorophenyl)-3-(trifluoromethyl)-1H-pyrazol-5-yl)methyl)-3-(6-(2-hydroxyethyl)-2-methylpyridin-3-yl)urea] it was 84 nM; in that of `CC(C)(C)c1cc(CNC(=O)Nc2ccc(C(O)CO)nc2)n(-c2cccc(Cl)c2)n1` (stereo not shown) [Example 144, 1-((3-tert-butyl-1-(3-chlorophenyl)-1H-pyrazol-5-yl)methyl)-3-(6-(1,2-dihydroxyethyl)pyridin-3-yl)urea], 24 nM.

With `O=C(NCc1cc(C(F)(F)F)nn1-c1cccc(Cl)c1)Nc1ccc(C(O)CO)nc1` (stereo not shown) [Example 145, 1-((1-(3-chlorophenyl)-3-(trifluoromethyl)-1H-pyrazol-5-yl)methyl)-3-(6-(1,2-dihydroxyethyl)pyridin-3-yl)urea], the Ki was found to be 121 nM. For `CC(C(=O)NCc1cc(C(F)(F)F)nn1-c1cccc(Cl)c1)c1ccc(NCCO)nc1` (stereo not shown) [Example 146, N-((1-(3-chlorophenyl)-3-(trifluoromethyl)-1H-pyrazol-5-yl)methyl)-2-(6-(2-hydroxyethylamino)pyridin-3-yl)propanamide], the inhibition constant (Ki) came out at 0.6 nM. `COCCNc1ccc(C(C)C(=O)NCc2cc(C(F)(F)F)nn2-c2cccc(Cl)c2)cn1` (stereo not shown) [Example 147, N-((1-(3-chlorophenyl)-3-(trifluoromethyl)-1H-pyrazol-5-yl)methyl)-2-(6-(2-methoxyethylamino)pyridin-3-yl)propanamide]: the Ki was determined as 18 nM.

Turning to `CC(C(=O)NCc1cc(C(F)(F)F)nn1-c1cccc(Cl)c1)c1ccc(N(C)CCO)nc1` (stereo not shown) [Example 148, N-((1-(3-chlorophenyl)-3-(trifluoromethyl)-1H-pyrazol-5-yl)methyl)-2-(6-((2-hydroxyethyl)(methyl)amino)pyridin-3-yl)propanamide], the inhibitory constant (Ki) is 15 nM. The same measure, in the same setting: next, `CC(C(=O)NCc1cc(C(F)(F)F)nn1-c1ccc(F)c(Cl)c1)c1ccc(CCO)nc1` (stereo not shown) [Example 149, N-((1-(3-chloro-4-fluorophenyl)-3-(trifluoromethyl)-1H-pyrazol-5-yl)methyl)-2-(6-(2-hydroxyethyl)pyridin-3-yl)propanamide]: 28 nM. As to `CC(C(=O)NCc1cc(C2CC2)nn1-c1cccc(Cl)c1)c1ccc(CCO)nc1` (stereo not shown) [Example 150, N-((1-(3-chlorophenyl)-3-cyclopropyl-1H-pyrazol-5-yl)methyl)-2-(6-(2-hydroxyethyl)pyridin-3-yl)propanamide], the inhibitory constant (Ki) amounted to 59 nM. On the same count and under the same terms, next, `Cc1cccc(-n2nc(C(F)(F)F)cc2CNC(=O)C(C)c2ccc(CCO)nc2)c1` (stereo not shown) [Example 151, 2-(6-(2-hydroxyethyl)pyridin-3-yl)-N-((1-m-tolyl-3-(trifluoromethyl)-1H-pyrazol-5-yl)methyl)propanamide]: 49 nM; `CC(C)(C)c1cc(CNC(=O)Nc2ccc(CCO)nc2)n(-c2cccc(F)c2)n1` [Example 152, 1-((3-tert-butyl-1-(3-fluorophenyl)-1H-pyrazol-5-yl)methyl)-3-(6-(2-hydroxyethyl)pyridin-3-yl)urea]: 85 nM. Consider `COc1cccc(-n2nc(C(C)(C)C)cc2CNC(=O)Nc2ccc(CCO)nc2)c1` [Example 153, 1-((3-tert-butyl-1-(3-methoxyphenyl)-1H-pyrazol-5-yl)methyl)-3-(6-(2-hydroxyethyl)pyridin-3-yl)urea], for which the Ki came out at 50 nM. The same measure, in the same setting: in the case of `CC(C)(C)c1cc(CNC(=O)Nc2ccc(NCCO)nc2)n(-c2cccc(F)c2)n1` [Example 154, 1-((3-tert-butyl-1-(3-fluorophenyl)-1H-pyrazol-5-yl)methyl)-3-(6-(2-hydroxyethylamino)pyridin-3-yl)urea] it was 38 nM. Same read-out and setting: next, `O=C(NCc1cc(C(F)(F)F)nn1-c1cc(F)cc(F)c1)Nc1ccc(NCCO)nc1` [Example 155, 1-((1-(3,5-difluorophenyl)-3-(trifluoromethyl)-1H-pyrazol-5-yl)methyl)-3-(6-(2-hydroxyethylamino)pyridin-3-yl)urea]: 35 nM. On the same count and under the same terms, in the case of `Cc1cc(-n2nc(C(F)(F)F)cc2CNC(=O)Nc2ccc(NCCO)nc2)ccc1Cl` [Example 156, 1-((1-(4-chloro-3-methylphenyl)-3-(trifluoromethyl)-1H-pyrazol-5-yl)methyl)-3-(6-(2-hydroxyethylamino)pyridin-3-yl)urea] it was 29 nM; in that of `COc1ccc(-n2nc(C(F)(F)F)cc2CNC(=O)Nc2ccc(NCCO)nc2)cc1C` [Example 157, 1-(6-(2-hydroxyethylamino)pyridin-3-yl)-3-((1-(4-methoxy-3-methylphenyl)-3-(trifluoromethyl)-1H-pyrazol-5-yl)methyl)urea], 112 nM; in that of `Cc1cc(-n2nc(C(F)(F)F)cc2CNC(=O)Nc2ccc(NCCO)nc2)ccc1F` [Example 158, 1-((1-(4-fluoro-3-methylphenyl)-3-(trifluoromethyl)-1H-pyrazol-5-yl)methyl)-3-(6-(2-hydroxyethylamino)pyridin-3-yl)urea], 77 nM. Take `CC(C)(C)c1cc(CNC(=O)Nc2ccc(CS(C)(=O)=O)nc2)n(-c2cccc(Cl)c2)n1` [Example 159, 1-((3-tert-butyl-1-(3-chlorophenyl)-1H-pyrazol-5-yl)methyl)-3-(6-(methylsulfonylmethyl)pyridin-3-yl)urea]: the inhibition at 1 µM (1 μM compound, capsaicin (Cap), human being, read-out: inhibition (as a percentage) at the concentration after @, Cap) turned out to be 29%. Take `CC(C)(C)c1cc(CNC(=O)Nc2ccc(CO)nc2)n(-c2cccc(F)c2)n1` [Example 160, 1-((3-tert-butyl-1-(3-fluorophenyl)-1H-pyrazol-5-yl)methyl)-3-(6-(hydroxymethyl)pyridin-3-yl)urea]: the Ki is 75 nM.

In general, Ki refers to a dissociation constant, usually derived from enzyme kinetics or from competition with a known ligand.
